Experimental data published in ChEMBL document CHEMBL4732144, “Discovery of a true bivalent dopamine D receptor agonist” (Eur J Med Chem, 2021).
Calls of active or inactive are those of the source. No cut-off for these calls is given here.

What was measured:
D(2) dopamine receptor [1] = molecular target: T1, D(2) dopamine receptor (Homo sapiens, UniProt P14416); assay: Displacement of [3H]raclopride from human D2R isoform 2 stably expressed in HEK293 cell membranes at 1 uM measured after 1 hr by liquid scintillation counting method; details: Membrane, filed as agonist
D(2) dopamine receptor [2] = molecular target: T1, D(2) dopamine receptor; assay: Displacement of [3H]raclopride from human D2R isoform 2 stably expressed in HEK293 cell membranes measured after 1 hr by liquid scintillation counting method; set-up: species or system Membrane
D(2) dopamine receptor [3] = molecular target: T1, D(2) dopamine receptor; assay: Displacement of [3H]raclopride from human D2R isoform 2 stably expressed in HEK293 cell membranes measured after 1 hr by liquid scintillation counting method relative to IndAlk Ki; details: Membrane
D(2) dopamine receptor [4] = molecular target: T1, D(2) dopamine receptor; assay: Agonist activity at human D2R isoform 2 stably expressed in HEK293 cells assessed as inhibition of forskolin-induced increase of cAMP accumulation preincubated for 10 mins followed by forskolin addition by Glosensor cAMP reagent based luminescence assay; type: functional, cell-based
D(2) dopamine receptor [5] = molecular target: T1, D(2) dopamine receptor; assay: Agonist activity at human D2R isoform 2 stably expressed in HEK293 cells assessed as inhibition of forskolin-induced increase of cAMP accumulation preincubated for 10 mins followed by forskolin addition by Glosensor cAMP reagent based luminescence assay relative to IndAlk EC50; type: functional, cell-based
D(2) dopamine receptor [6] = molecular target: T1, D(2) dopamine receptor; assay: Displacement of [3H]raclopride from human D2R isoform 2 stably expressed in HEK293 cell membranes measured after 1 hr by liquid scintillation counting method relative to IndBipAlk Ki; details: Membrane
D(2) dopamine receptor [7] = molecular target: T1, D(2) dopamine receptor; assay: Agonist activity at human D2R isoform 2 stably expressed in HEK293 cells assessed as inhibition of forskolin-induced increase of cAMP accumulation preincubated for 10 mins followed by forskolin addition by Glosensor cAMP reagent based luminescence assay relative to IndBipAlk EC50; type: functional, cell-based

T1 sequence (P14416 whole entry, canonical isoform): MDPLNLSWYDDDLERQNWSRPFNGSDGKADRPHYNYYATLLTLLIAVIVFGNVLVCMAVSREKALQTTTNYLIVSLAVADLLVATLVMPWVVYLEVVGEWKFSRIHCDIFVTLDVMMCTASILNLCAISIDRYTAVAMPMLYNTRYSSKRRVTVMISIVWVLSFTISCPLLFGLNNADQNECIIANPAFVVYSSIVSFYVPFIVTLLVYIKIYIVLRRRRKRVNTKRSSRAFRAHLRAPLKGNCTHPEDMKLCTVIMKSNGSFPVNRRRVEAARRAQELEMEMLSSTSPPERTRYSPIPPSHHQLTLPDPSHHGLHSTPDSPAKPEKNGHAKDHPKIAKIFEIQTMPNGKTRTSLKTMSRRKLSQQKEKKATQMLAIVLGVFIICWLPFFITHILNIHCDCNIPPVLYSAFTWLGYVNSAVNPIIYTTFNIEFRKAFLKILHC

| SMILES | inhibition (D(2) dopamine receptor [1]) | Ki (D(2) dopamine receptor [2]) | Ratio Ki (D(2) dopamine receptor [3]) | EC50 (D(2) dopamine receptor [4]) | Ratio EC50 (D(2) dopamine receptor [5]) | Ratio Ki (D(2) dopamine receptor [6]) | Ratio EC50 (D(2) dopamine receptor [7]) |
| --- | --- | --- | --- | --- | --- | --- | --- |
| CCCN(CCCCc1cn(CCOCCOCCOCCn2cc(CCCCN(CCC)C3Cc4ccccc4C3)nn2)nn1)C1Cc2ccccc2C1 | Active | 73 nM | 2.6 | 7.2 nM | 0.5 |  |  |
| CCCN(CCCCNC(=O)c1ccc(-c2ccc(OCc3cn(CCOCCOCCOCCOCCOCCn4cc(COc5ccc(-c6ccc(C(=O)NCCCCN(CCC)C7Cc8ccccc8C7)cc6)cc5)nn4)nn3)cc2)cc1)C1Cc2ccccc2C1 | > 80% | 59 nM |  | 65 nM |  | 16.4 | 4.9 |
| CCCN(CCCCc1cn(CCOCCOCCOCCOCCOCCn2cc(CCCCN(CCC)C3Cc4ccccc4C3)nn2)nn1)C1Cc2ccccc2C1 | Active | 48 nM | 3.9 | 3.2 nM | 1.1 |  |  |
| CCCN(CCCCNC(=O)c1ccc(-c2ccc(OCc3cn(CCOCCOCCOCCn4cc(COc5ccc(-c6ccc(C(=O)NCCCCN(CCC)C7Cc8ccccc8C7)cc6)cc5)nn4)nn3)cc2)cc1)C1Cc2ccccc2C1 | Active | 270 nM |  | 292 nM |  | 3.6 | 1.1 |
| C#CCCCCN(CCC)C1Cc2ccccc2C1 |  | 189 nM |  | 3.4 nM |  |  |  |
| CCCN(CCCCNC(=O)c1ccc(-c2ccc(OCc3cn(CCOCCOCCOCCOCCn4cc(COc5ccc(-c6ccc(C(=O)NCCCCN(CCC)C7Cc8ccccc8C7)cc6)cc5)nn4)nn3)cc2)cc1)C1Cc2ccccc2C1 | Active | 250 nM |  | 542 nM |  | 3.9 | 0.6 |

The remaining lines, values ahead:

| inhibition (D(2) dopamine receptor [1]) | Ki (D(2) dopamine receptor [2]) | Ratio Ki (D(2) dopamine receptor [3]) | EC50 (D(2) dopamine receptor [4]) | Ratio EC50 (D(2) dopamine receptor [5]) | Ratio Ki (D(2) dopamine receptor [6]) | Ratio EC50 (D(2) dopamine receptor [7]) | SMILES |
| --- | --- | --- | --- | --- | --- | --- | --- |
|  | 970 nM |  | 321 nM |  |  |  | C#CCOc1ccc(-c2ccc(C(=O)NCCCCN(CCC)C3Cc4ccccc4C3)cc2)cc1 |
| Active | 66 nM | 2.9 | 9.4 nM | 0.4 |  |  | CCCN(CCCCc1cn(CCOCCOCCOCCOCCn2cc(CCCCN(CCC)C3Cc4ccccc4C3)nn2)nn1)C1Cc2ccccc2C1 |
